Data: article PMC7583898, “Novel Harmicines with Improved Potency against Plasmodium” (Molecules, 2020)
Read-outs that look alike come from different tables or passages of the source.

Experiments:
[1] = test system: P. falciparum erythrocytic stage, PfDd2 (chloroquine-resistant) strain; experiment: In vitro drug sensitivity assay against erythrocytic stage of P. falciparum, PfDd2 strain (HRP2-ELISA); type: cell-based; conditions: Plasmodium falciparum, mean ± SD
Method: (§1) The antiplasmodial activity of harmicines 5 and 6 was evaluated against two laboratory P. falciparum strains (3D7 – CQ-sensitive, and Dd2 – CQ-resistant), as previously described, using the histidine-rich protein 2 (HRP2) assay. […] After three days of incubation at 37 °C, 5% CO2 and 5% oxygen, plates were frozen until analyzed by HRP2-ELISA. All compounds were evaluated in duplicate in at least two independent experiments. The IC50 was determined by nonlinear regression analysis of log concentration–response curves using the drc package v0.9.0 of R v2.6.1 [22].

[2] = test system: human liver hepatocellular carcinoma cell line (HepG2); experiment: In vitro cytotoxicity assay (neutral red); type: cell-based; conditions: for IC50: Homo sapiens, HepG2, 24 h, neutral red, one day incubation, mean ± SD; for SI, selectivity index: ratio between IC50 (HepG2) and IC50 (Pf3D7)
Method: A cytotoxicity assay was performed using the neutral red assay, as described previously, against human liver hepatocellular carcinoma cell line (HepG2) (Table 1). For the safety assessment, a selectivity index (SI) for each compound was calculated as the fractional ratio between the IC50 values for HepG2 and P. falciparum Pf3D7 strain (Table 2). In general, N-harmicines 5 are less cytotoxic than O-harmicines 6, which is in agreement with the results obtained for triazole-type harmicines. Furthermore, all N-harmicines, but only two O-harmicines, 6d and 6f, have more favorable SIs than the parent compound harmine (SI = 30). […] Compound 5b, with a m-fluorine substituent in the cinnamic scaffold, exerted the highest selectivity (SI = 773), followed by 5a, an amide with unsubstituted cinnamic acid (SI = 715).
Cytotoxicity against a human cell line (HepG2) was evaluated using the neutral red assay. In brief, human cells were seeded to a 96 well plate in complete culture medium, before on the following day a serial dilution of the respective compound was added. After one day of incubation, cytotoxicity was evaluated by the addition of Neutral Red, subsequent lysis of cells and the measurement of absorbance in a plate reader. The IC50 was determined as for the in vitro drug assay against P. falciparum. To assess the safety of a compound, SI was calculated as the fractional ratio between the IC50 values for HepG2 and the P. falciparum 3D7 strain.

[3] = test system: P. falciparum erythrocytic stage, Pf3D7 (chloroquine-sensitive) strain; experiment: In vitro drug sensitivity assay against erythrocytic stage of P. falciparum, Pf3D7 strain (HRP2-ELISA); type: cell-based; conditions: Plasmodium falciparum, mean ± SD
Method: as §1

[4] = test system: P. falciparum erythrocytic stage, Pf3D7 (chloroquine-sensitive) strain; set-up: method as in PMID 31812035; conditions: ref [15]; cited from earlier work
[5] = test system: P. falciparum erythrocytic stage, PfDd2 (chloroquine-resistant) strain; conditions: ref [15]; cited from earlier work
[6] = test system: human liver hepatocellular carcinoma cell line (HepG2); set-up: method as in PMID 31812035; conditions: ref [15]; cited from earlier work

Row | SMILES | IC50 [1] [nM] | IC50 [2] [nM] | SI, selectivity index [2] | IC50 [3] [nM] | IC50 [4] [nM] | IC50 [5] [nM] | IC50 [6] [nM]
1 | COc1ccc2c3ccnc(C)c3n(CCNC(=O)C=Cc3ccccc3)c2c1 [5a, N-(2-(7-methoxy-1-methyl-9H-pyrido[3,4-b]indol-9-yl)ethyl)cinnamamide] | 1110 ± 150 | 350000 ± 13000 | 715 | 490 ± 250 | – | – | –
2 | COc1ccc2c3ccnc(C)c3n(CCNC(=O)/C=C/c3cccc(F)c3)c2c1 [5b, (E)-3-(3-fluorophenyl)-N-(2-(7-methoxy-1-methyl-9H-pyrido[3,4-b]indol-9-yl)ethyl)acrylamide] | 780 ± 320 | 54100 ± 13400 | 773 | 70 ± 30 | – | – | –
3 | COc1ccc2c3ccnc(C)c3n(CCNC(=O)/C=C/c3cccc(Br)c3)c2c1 [5c, (E)-3-(3-bromophenyl)-N-(2-(7-methoxy-1-methyl-9H-pyrido[3,4-b]indol-9-yl)ethyl)acrylamide] | 410 ± 10 | 2880 ± 420 | 41 | 70 ± 30 | – | – | –
4 | COc1ccc2c3ccnc(C)c3n(CCNC(=O)/C=C/c3ccc(F)cc3)c2c1 [5d, (E)-3-(4-fluorophenyl)-N-(2-(7-methoxy-1-methyl-9H-pyrido[3,4-b]indol-9-yl)ethyl)acrylamide] | 330 ± 110 | 21000 ± 880 | 233 | 90 ± 60 | – | – | –
5 | COc1ccc2c3ccnc(C)c3n(CCNC(=O)/C=C/c3ccc(Cl)cc3)c2c1 [5e, (E)-3-(4-chlorophenyl)-N-(2-(7-methoxy-1-methyl-9H-pyrido[3,4-b]indol-9-yl)ethyl)acrylamide] | 170 ± 10 | 2910 ± 1750 | 73 | 40 ± 20 | – | – | –
6 | COc1ccc(/C=C/C(=O)NCCn2c3cc(OC)ccc3c3ccnc(C)c32)cc1 [5f, (E)-N-(2-(7-methoxy-1-methyl-9H-pyrido[3,4-b]indol-9-yl)ethyl)-3-(4-methoxyphenyl)acrylamide] | 490 ± 240 | 74700 ± 7610 | 287 | 260 ± 1 | – | – | –
7 | Cc1nccc2c1[nH]c1cc(OCCNC(=O)C=Cc3ccccc3)ccc12 [6a, N-(2-((1-methyl-9H-pyrido[3,4-b]indol-7-yl)oxy)ethyl)cinnamamide] | 4700 ± 2650 | 12700 ± 660 | 13 | 980 ± 120 | – | – | –
8 | Cc1nccc2c1[nH]c1cc(OCCNC(=O)/C=C/c3cccc(F)c3)ccc12 [6b, (E)-3-(3-fluorophenyl)-N-(2-((1-methyl-9H-pyrido[3,4-b]indol-7-yl)oxy)ethyl)acrylamide] | 5010 ± 830 | 12900 ± 3310 | 5 | 2750 ± 1600 | – | – | –
9 | Cc1nccc2c1[nH]c1cc(OCCNC(=O)/C=C/c3cccc(Br)c3)ccc12 [6c, (E)-3-(3-bromophenyl)-N-(2-((1-methyl-9H-pyrido[3,4-b]indol-7-yl)oxy)ethyl)acrylamide] | 480 ± 280 | 6110 ± 2070 | 16 | 370 ± 220 | – | – | –
10 | Cc1nccc2c1[nH]c1cc(OCCNC(=O)/C=C/c3ccc(F)cc3)ccc12 [6d, (E)-3-(4-fluorophenyl)-N-(2-((1-methyl-9H-pyrido[3,4-b]indol-7-yl)oxy)ethyl)acrylamide] | 690 ± 180 | 7630 ± 2470 | 51 | 150 ± 60 | – | – | –
11 | Cc1nccc2c1[nH]c1cc(OCCNC(=O)/C=C/c3ccc(Cl)cc3)ccc12 [6e, (E)-3-(4-chlorophenyl)-N-(2-((1-methyl-9H-pyrido[3,4-b]indol-7-yl)oxy)ethyl)acrylamide] | 400 ± 240 | 7720 ± 3040 | 24 | 320 ± 30 | – | – | –
12 | COc1ccc(/C=C/C(=O)NCCOc2ccc3c(c2)[nH]c2c(C)nccc23)cc1 [6f, (E)-3-(4-methoxyphenyl)-N-(2-((1-methyl-9H-pyrido[3,4-b]indol-7-yl)oxy)ethyl)acrylamide] | 1090 ± 490 | 10500 ± 430 | 50 | 210 ± 140 | – | – | –
13 | Cc1nccc2c1[nH]c1cc(OCCNC(=O)/C=C/c3ccccc3F)ccc12 [6g, (E)-3-(2-fluorophenyl)-N-(2-((1-methyl-9H-pyrido[3,4-b]indol-7-yl)oxy)ethyl)acrylamide] | 3920 ± 1350 | 16200 ± 1860 | 17 | 930 ± 280 | – | – | –
14 | C/C(=C\c1ccccc1)C(=O)NCCOc1ccc2c(c1)[nH]c1c(C)nccc12 [6h, (E)-2-methyl-N-(2-((1-methyl-9H-pyrido[3,4-b]indol-7-yl)oxy)ethyl)-3-phenylacrylamide] | 19500 ± 11800 | 61300 ± 2750 | 9 | 6780 ± 720 | – | – | –
15 | CCN(CC)CCCC(C)Nc1ccnc2cc(Cl)ccc12 (stereo not drawn) [CQ, chloroquine] | – | – | – | – | 3 ± 2 | 200 ± 100 | –
16 | COc1ccc2c(c1)[nH]c1c(C)nccc12 [Harmine, harmine] | – | – | – | – | – | > 27700 | > 250000
